{"source": "patent US9974782B2", "about": "“Phosphodiesterase inhibitors and uses thereof” (THE TRUSTEES OF COLUMBIA UNIVERSITY IN THE CITY OF NEW YORK, priority 2008, dated 2018)", "key": {"APP/PS1 mice": {"tested_on": "APP/PS1 mice", "assay": "Radial-arm water maze (spatial working memory)", "assay_type": "in vivo, mouse", "conditions": "for minimum time needed for a positive effect on spatial working memory: 3 mg/kg", "from_the_text": "Next, the effect of treatment with sildenafil was examined on spatial working memory, a type of short-term memory that can be studied with the radial-arm water maze test. […] Mice were required to learn and memorize the location of a hidden platform in one of the arms of a maze with respect to spatial cues. […] However, daily injections of sildenafil for 3 weeks immediately after the 4th acquisition trial ameliorated the behavioural performance of APP/PS1 mice (FIG. 2B).\nThe effects of one course of 3-week treatment with sildenafil on spatial working memory were next tested using the radial-arm water-maze task. There was a difference between the number of errors made by vehicle-treated APP/PS1 and WT mice (FIG. 3B)^A12. Administration of sildenafil for 3 weeks, 9-12 weeks prior to the testing, reduced the gap between the two groups without affecting performance of the WT animals (FIG. 3B).\nThree-month-old APP/PS1 and WT mice were separated into 4 groups: APP/PS1 mice treated with vehicle, APP/PS1 mice treated with PDE inhibitor, WT mice treated with vehicle, and WT mice treated with PDE inhibitor. […] In the remaining experiments, sildenafil was injected via i.p. The drug was administered either acutely or for 1 course of 3 week treatment. For assessment of the short-term effects of sildenafil, the drug was given at a concentration of 3 mg/kg immediately after the training. This dose yields concentrations of ˜2.5 μM cGMP in the hippocampus^A53. For assessment of long-term effects, sildenafil was given daily by i.p. injection at a concentration of 3 mg/kg for 3 weeks and then treatment was stopped for 9-12 weeks prior to behavioral testing. Contextual and cued fear conditioning was performed for 3 days. Radial-arm water-maze (RAWM) was performed for 3 weeks. Then, the animals were sacrificed for electrophysiological recordings. To decide the time of administration of sildenafil in the acute experiments, a series of studies was performed in which the inhibitor was injected i.p. at 5 min before the electric shock or at 5 min before the first acquisition trial with the radial arm water maze. […] Thus, all the behavioral experiments on the acute effects of sildenafil reported in the result section were performed with injection after the training.\nThis is a type of short-term memory that can be studied with the RAWM test^12. Briefly, the RAWM consisted of a white tank (120 cm diameter) filled with water (24-25° C.) and made opaque by the addition of non-toxic white paint. Within the tank walls were positioned so as to produce six arms, radiating from a central area. Spatial cues were presented on the walls of the testing room. At the end of one of the arms was positioned a clear 10 cm submerged (1.5 cm) platform that remained in the same location for every trial in one day, but was moved about randomly from day to day. On each trial the mouse started the task from a different randomly chosen arm. […] Each trial lasted 1 min and errors were counted each time the mouse entered the wrong arm or needed more than 20 sec to reach the platform. After each error the mouse was pulled back to the start arm for that trial. After 4 consecutive acquisition trials, the mouse was placed in its home cage for 30 min, then returned to the maze and administered a 5th retention trial. Testing was considered completed as the WT mice made the same number of errors at the 4th and 5th trial. The scores for each mouse on the last three days of testing were averaged and used for statistical analysis."}, "[1]": {"tested_on": "hippocampal slices treated with Aβ42", "assay": "LTP in hippocampal slices treated with 200 nM oligomeric Aβ42", "assay_type": "cell-based, mouse", "conditions": "YF012403 50 nM for 10 min prior to the θ-burst", "description": "Following cutting hippocampal slices were transferred to a recording chamber where they were maintained at 29° C. and perfused with artificial cerebrospinal fluid (ACSF) continuously bubbled with 95% O2 and 5% CO2. The ACSF composition in mM was: 124.0 NaCl, 4.4 KCl, 1.0 Na2HPO4, 25.0 NaHCO3, 2.0 CaCl2, 2.0 MgSO4, 10.0 glucose. CA1 fEPSPs were recorded by placing both the stimulating and the recording electrodes in CA1 stratum radiatum. BST was assayed either by plotting the stimulus voltages against slopes of fEPSP, or by plotting the peak amplitude of the fiber volley against the slope of the fEPSP. A 15 min baseline was recorded every min at an intensity that evokes a response ˜35% of the maximum evoked response. LTP was induced using q-burst stimulation (4 pulses at 100 Hz, with the bursts repeated at 5 Hz and each tetanus including 3 ten-burst trains separated by 15 sec). Responses were recorded for 1 hr after tetanization and measured as field-excitatory-post-synaptic potential (fEPSP) slope expressed as percentage of baseline.\nIn these experiments YF012403 (the cyclopropyl lead compound) was directly given to the hippocampal slices through the perfusion system for 10 min prior to the theta burst. Aβ42 was given for 20 minutes prior to the theta burst. Oligomeric Aβ42 was prepared as described previously (Stine et al., 2003). […]"}, "CREB phosphorylation": {"tested_on": "CREB phosphorylation", "assay_type": "cell-based, mouse"}, "[2]": {"tested_on": "isolated rabbit corpus cavernosum", "conditions": "read-out: EC50, relaxant effect; cited from earlier work"}, "[3]": {"conditions": "rodents; cited from earlier work"}, "[4]": {"conditions": "treated at 3 months, tested at 6-8 months"}, "[5]": {"conditions": "3 month-old APP/PS1, 3 mg/Kg i.p."}, "[6]": {"conditions": "APP/PS1, 3 mg/Kg i.p. for 3 weeks at 3 months, tested 9-12 weeks later"}, "[7]": {"conditions": "WT, 3 mg/Kg i.p. for 3 weeks at 3 months, tested 9-12 weeks later"}}, "note": "Values joined by “and” are separate entries in the source; they are usually repeats but may differ in a detail not shown here. Equal values may be shown once. “Also recorded” adds a separate entry of the source."}
{"smiles": "COc1ccc(CNc2c(CO)cnc3c(C4CC4)cc(C#N)cc23)cc1Cl", "note": "[YF012403, 4-(3-chloro-4-methoxybenzylamino)-8-cyclopropyl-3-(hydroxymethyl)-quinoline-6-carbonitrile]", "values": [{"measurement": "effect on spatial working memory (RAWM) in words", "setting": "APP/PS1 mice; APP/PS1 (transgenic) mice", "result": "attenuated"}, {"measurement": "effect on LTP deficit in Aβ42-treated slices in words", "setting": "[1]", "result": "ameliorates the LTP deficit; also recorded: ameliorated; also recorded: reverses LTP impairment"}]}
{"smiles": "CCCc1nn(C)c2c(=O)[nH]c(-c3cc(S(=O)(=O)N4CCN(C)CC4)ccc3OCC)nc12", "note": "[sildenafil, 5-[2-ethoxy-5-(4-methyl-1-piperazinylsulphonyl)phenyl]-1-methyl-3-n-propyl-1,6-dihydro-7H-pyrazolo[4,3-d]pyrimidin-7-one]", "values": [{"measurement": "minimum time needed for a positive effect on spatial working memory", "setting": "APP/PS1 mice; [4]", "result": 2, "unit": "weeks"}, {"measurement": "minimum time needed for a positive effect on spatial working memory", "setting": "APP/PS1 mice; 3-month-old APP/PS1", "result": 2, "unit": "weeks"}, {"measurement": "minimum concentration needed to improve spatial working memory", "setting": "APP/PS1 mice; 3-month-old APP/PS1, for 3 weeks", "result": 3, "unit": "mg/kg"}, {"measurement": "RAWM errors, recall trial R", "setting": "APP/PS1 mice; [5]", "result": "3.57±0.31", "unit": "errors"}, {"measurement": "RAWM errors, trial A1", "setting": "APP/PS1 mice; [5]", "result": "5.87±0.22", "unit": "errors"}, {"measurement": "RAWM errors, trial A4", "setting": "APP/PS1 mice; [5]", "result": "3.39±0.39", "unit": "errors"}, {"measurement": "RAWM errors, recall trial R", "setting": "APP/PS1 mice; 3 month-old WT, 3 mg/Kg i.p.", "result": "1.9±0.35", "unit": "errors"}, {"measurement": "RAWM errors, trial A1", "setting": "APP/PS1 mice; 3 month-old WT, 3 mg/Kg i.p.", "result": "5.5±0.23", "unit": "errors"}, {"measurement": "RAWM errors, trial A4", "setting": "APP/PS1 mice; 3 month-old WT, 3 mg/Kg i.p.", "result": "1.5±0.21", "unit": "errors"}, {"measurement": "RAWM errors, recall trial R", "setting": "APP/PS1 mice; [6]", "result": "3±0.75", "unit": "errors"}, {"measurement": "RAWM errors, trial A1", "setting": "APP/PS1 mice; [6]", "result": "6.16±0.39", "unit": "errors"}, {"measurement": "RAWM errors, trial A2", "setting": "APP/PS1 mice; [6]", "result": "4.16±0.53", "unit": "errors"}, {"measurement": "RAWM errors, trial A3", "setting": "APP/PS1 mice; [6]", "result": "3.5±0.41", "unit": "errors"}, {"measurement": "RAWM errors, trial A4", "setting": "APP/PS1 mice; [6]", "result": "2.83±0.61", "unit": "errors"}, {"measurement": "RAWM errors in the retention trial", "setting": "APP/PS1 mice; APP/PS1, injected i.p. 5 min before the first acquisition trial", "result": "~5", "unit": "errors"}, {"measurement": "RAWM errors, recall trial R", "setting": "APP/PS1 mice; [7]", "result": "2.33±0.36", "unit": "errors"}, {"measurement": "RAWM errors, trial A1", "setting": "APP/PS1 mice; [7]", "result": "6±0.29", "unit": "errors"}, {"measurement": "RAWM errors, trial A2", "setting": "APP/PS1 mice; [7]", "result": "3.22±0.56", "unit": "errors"}, {"measurement": "RAWM errors, trial A3", "setting": "APP/PS1 mice; [7]", "result": "2.5±0.36", "unit": "errors"}, {"measurement": "RAWM errors, trial A4", "setting": "APP/PS1 mice; [7]", "result": "1.83±0.16", "unit": "errors"}, {"measurement": "minimum concentration needed to improve spatial working memory", "setting": "APP/PS1 mice; [4]", "result": 3, "unit": "mg/kg"}, {"measurement": "phospho-CREB immunofluorescence after tetanus, % of control", "setting": "CREB phosphorylation", "result": "162.58±17.09% and 163.54±13.52% and 163.6±15.14% and 151.73±12.24%"}, {"measurement": "EC50", "setting": "[2]", "result": 8.7, "unit": "nM"}, {"measurement": "in vivo half-life", "setting": "[3]", "result": 24, "unit": "min"}]}
